Measurements reported in a compilation of properties of binary mixtures (doi:10.4028/www.scientific.net/amr.864-867.125).

Experiment: xn = mol fraction of the nth substance listed
Details: 101 kPa

CCCC[n+]1ccn(C)c1.F[P-](F)(F)(F)(F)F + Cc1ccccc1
viscosity [mPa·s]
Details	x2 = 0.05	x2 = 0.1	x2 = 0.2	x2 = 0.3	x2 = 0.4
298.15 K	–	149.5	111.5	67.3	42.9
300.65 K	126.7	99.9	–	50.1	–
303.15 K	98	–	55.7	–	24.6
305.65 K	79	57.3	44.2	–	20.42
308.15 K	65.7	47	36.8	–	17.61
310.65 K	56	–	31.7	24	15.61
313.15 K	48.7	34.7	27.9	21.33	–
315.65 K	43.1	30.8	25.1	19.23	12.97
318.15 K	38.7	27.8	22.96	–	12.06
320.65 K	35.1	25.4	21.23	–	–
323.15 K	32.2	23.49	19.82	15.09	10.71
325.65 K	29.8	21.91	18.66	14.15	10.21
328.15 K	–	20.59	17.68	13.36	9.77
330.65 K	–	19.47	16.85	12.68	9.4
333.15 K	24.5	18.52	16.14	12.09	9.08
335.65 K	23.16	17.69	15.52	11.58	–
338.15 K	–	16.96	14.98	11.13	8.56
